{"source": "patent US6447749B1", "about": "“Perfluoro-alkyl containing dye molecules and galencial formulations” (Schering Aktiengesellschaft, priority 1999, dated 2002)", "key": {"[1]": {"assay": "Photophysical characterization: fluorescence properties and fluorescence quantum yield (SPEX-fluorolog, relative to indocyanine green)", "format": "physicochemical", "conditions": "formulation with Gd-complex perfluoroalkyl derivative (WO 97/26017 Ex. 33); for Fluorescence quantum yield: 2 μM in dye", "experimental": "(§1) The determination of the absorption maxima and extinction coefficients was carried out with a Lambda 2-spectrometer (Perkin-Elmer Company). The fluorescence properties were determined on a SPEX-fluorolog (Instruments S. A. Company, photomultiplier Hamamatsu PM928, excitation 350W xenon lamp). the determination of the fluorescence quantum yield was carried out relative to indocyanine green (O=13% in DMSO) by excitation at 585 nm (dyes with p=2) or 685 nm (dyes with p=3), in each case of solutions of concentration 2 μM in dye, and correction with the spectral sensitivity of lamp and detector."}, "[2]": {"assay": "Photophysical characterization: absorption maxima and extinction coefficients (Lambda 2-spectrometer)", "format": "physicochemical", "conditions": "formulation with Gd-complex perfluoroalkyl derivative (WO 97/26017 Ex. 33)", "experimental": "as §1"}, "[3]": {"conditions": "in DMSO; cited from earlier work"}, "[4]": {"conditions": "dyes 7-14 table, 5 mol % of dye"}}, "note": "Where a name gives a salt, the structure may show the parent alone."}
{"smiles": "CC1(C)C(=CC=CC=CC2=[N+](CCCCS(=O)(=O)[O-])c3ccc(C(=O)N(CCOCCC(F)(F)C(F)(F)C(F)(F)C(F)(F)C(F)(F)C(F)(F)C(F)(F)C(F)(F)F)CC(O)CO)cc3C2(C)C)N(CCCCS(=O)(=O)[O-])c2ccccc21.[Na+]", "note": "(stereo not shown) [Dye 9, 5-{N-[2-(3,3,4,4,5,5,6,6,7,7,8,8,9,9,10,10,10-heptadecafluorodecyloxy)ethyl]-N-(2,3-dihydroxypropyl)aminocarbonyl}-2-{7-[1,3-dihydro-3,3-dimethyl-1-(4-sulfobutyl)-2H-indol-2-ylidene]-1,3-pentadienyl}-3,3-dimethyl-1-(4-sulfobutyl)-3H-indolium, internal salt, sodium salt]", "values": [{"measurement": "Fluorescence max.", "setting": "[1]; [4]", "result": 685, "unit": "nm"}, {"measurement": "Fluorescence quantum yield", "setting": "[1]; [4]", "result": 0.12}, {"measurement": "Fluorescence max.", "setting": "[1]; 1 mol % of dye", "result": 681, "unit": "nm"}, {"measurement": "Fluorescence quantum yield", "setting": "[1]; 1 mol % of dye", "result": 0.17}, {"measurement": "Fluorescence max.", "setting": "[1]; 2 mol % of dye", "result": 683, "unit": "nm"}, {"measurement": "Fluorescence quantum yield", "setting": "[1]; 2 mol % of dye", "result": 0.18}, {"measurement": "Fluorescence max.", "setting": "[1]; 5 mol % of dye", "result": 685, "unit": "nm"}, {"measurement": "Fluorescence quantum yield", "setting": "[1]; 5 mol % of dye", "result": 0.12}, {"measurement": "Fluorescence max.", "setting": "[1]; 10 mol % of dye", "result": 685, "unit": "nm"}, {"measurement": "Fluorescence quantum yield", "setting": "[1]; 10 mol % of dye", "result": 0.04}, {"measurement": "Absorption max.", "setting": "[2]; [4]", "result": 651, "unit": "nm"}, {"measurement": "Extinction coefficient", "setting": "[2]; [4]", "result": "123,700 L mol^−1 cm^−1"}, {"measurement": "Absorption max.", "setting": "[2]; 1 mol % of dye", "result": 652, "unit": "nm"}, {"measurement": "Extinction coefficient", "setting": "[2]; 1 mol % of dye", "result": "132,000 L mol^−1 cm^−1"}, {"measurement": "Absorption max.", "setting": "[2]; 2 mol % of dye", "result": 651, "unit": "nm"}, {"measurement": "Extinction coefficient", "setting": "[2]; 2 mol % of dye", "result": "130,200 L mol^−1 cm^−1"}, {"measurement": "Absorption max.", "setting": "[2]; 5 mol % of dye", "result": 651, "unit": "nm"}, {"measurement": "Extinction coefficient", "setting": "[2]; 5 mol % of dye", "result": "123,700 L mol^−1 cm^−1"}, {"measurement": "Absorption max.", "setting": "[2]; 10 mol % of dye", "result": 649, "unit": "nm"}, {"measurement": "Extinction coefficient", "setting": "[2]; 10 mol % of dye", "result": "110,900 L mol^−1 cm^−1"}]}
{"smiles": "CCN1C(=CC=CC=CC2=[N+](CCCCS(=O)(=O)[O-])c3ccc(C(=O)NCCOCCC(F)(F)C(F)(F)C(F)(F)C(F)(F)C(F)(F)C(F)(F)C(F)(F)C(F)(F)F)cc3C2(C)C)C(C)(C)c2ccccc21", "note": "[Dye 11, 2-[5-(1-Ethyl)-1,3-dihydro-3,3-dimethyl-2H-indol-2-ylidene)-1,3-pentatrienyl]-5-{N-[2-(3,3,4,4,5,5,6,6,7,7,8,8,9,9,10,10,10-heptadecafluorodecyloxy)ethyl]-aminocarbonyl}-3,3-dimethyl-1-(4-sulfobutyl)-3H-indolium, internal salt, sodium salt]", "values": [{"measurement": "Fluorescence max.", "setting": "[1]; [4]", "result": 683, "unit": "nm"}, {"measurement": "Fluorescence quantum yield", "setting": "[1]; [4]", "result": 0.14}, {"measurement": "Absorption max.", "setting": "[2]; [4]", "result": 653, "unit": "nm"}, {"measurement": "Extinction coefficient", "setting": "[2]; [4]", "result": "145,000 L mol^−1 cm^−1"}]}
{"smiles": "CCN1C(=CC=CC=CC=CC2=[N+](CCCCS(=O)(=O)[O-])c3ccc(C(=O)NCCOCCC(F)(F)C(F)(F)C(F)(F)C(F)(F)C(F)(F)C(F)(F)C(F)(F)C(F)(F)F)cc3C2(C)C)C(C)(C)c2ccccc21", "note": "[Dye 12, 2-[5-(1-ethyl)-1,3-dihydro-3,3-dimethyl-2H-indol-2-ylidene)-1,3,5-heptatrienyl]-5-{N-[2-(3,3,4,4,5,5,6,6,7,7,8,8,9,9,10,10,10-heptadecafluorodecyloxy)-ethyl]-aminocarbonyl}-3,3-dimethyl-1-(4-sulfobutyl)-3H-indolium, internal salt, sodium salt]", "values": [{"measurement": "Fluorescence max.", "setting": "[1]; [4]", "result": 788, "unit": "nm"}, {"measurement": "Fluorescence quantum yield", "setting": "[1]; [4]", "result": 0.13}, {"measurement": "Absorption max.", "setting": "[2]; [4]", "result": 754, "unit": "nm"}, {"measurement": "Extinction coefficient", "setting": "[2]; [4]", "result": "118,800 L mol^−1 cm^−1"}]}
{"smiles": "CCN1C(=CC=CC=CC2=[N+](CCCCS(=O)(=O)[O-])c3ccc(C(=O)N(CCOCCC(F)(F)C(F)(F)C(F)(F)C(F)(F)C(F)(F)C(F)(F)C(F)(F)C(F)(F)F)CC(O)CO)cc3C2(C)C)C(C)(C)c2ccccc21", "note": "(stereo not shown) [Dye 13, 2-[5-(1-ethyl)-1,3-dihydro-3,3-dimethyl-2H-indol-2-ylidene)-1,3-pentatrienyl]-5-{N-[2-(3,3,4,4,5,5,6,6,7,7,8,8,9,9,10,10,10-heptadecafluorodecyloxy)ethyl]-N-(2,3-dihydroxypropyl)aminocarbonyl}-3,3-dimethyl-1-(4-sulfobutyl)-3H-indolium, internal salt, sodium salt]", "values": [{"measurement": "Fluorescence max.", "setting": "[1]; [4]", "result": 684, "unit": "nm"}, {"measurement": "Fluorescence quantum yield", "setting": "[1]; [4]", "result": 0.16}, {"measurement": "Absorption max.", "setting": "[2]; [4]", "result": 650, "unit": "nm"}, {"measurement": "Extinction coefficient", "setting": "[2]; [4]", "result": "150,700 L mol^−1 cm^−1"}]}
{"smiles": "CCN1C(=CC=CC=CC=CC2=[N+](CCCCS(=O)(=O)[O-])c3ccc(C(=O)N(CCOCCC(F)(F)C(F)(F)C(F)(F)C(F)(F)C(F)(F)C(F)(F)C(F)(F)C(F)(F)F)CC(O)CO)cc3C2(C)C)C(C)(C)c2ccccc21", "note": "(stereo not shown) [Dye 14, 2-[5-(1-ethyl)-1,3-dihydro-3,3-dimethyl-2H-indol-2-ylidene)-1,3,5-heptatrienyl]-5-{N-[2-(3,3,4,4,5,5,6,6,7,7,8,8,9,9,10,10,10-heptadecafluorodecyloxy)-ethyl]-N-(2,3-dihydroxypropyl)aminocarbonyl}-3,3-dimethyl-1-(4-sulfobutyl)-3H-indolium, internal salt, sodium salt]", "values": [{"measurement": "Fluorescence max.", "setting": "[1]; [4]", "result": 789, "unit": "nm"}, {"measurement": "Fluorescence quantum yield", "setting": "[1]; [4]", "result": 0.09}, {"measurement": "Absorption max.", "setting": "[2]; [4]", "result": 753, "unit": "nm"}, {"measurement": "Extinction coefficient", "setting": "[2]; [4]", "result": "124,100 L mol^−1 cm^−1"}]}
{"smiles": "CC1(C)C(/C=C/C=C/C=C/C=C2\\N(CCCCS(=O)(=O)O)c3ccc4ccccc4c3C2(C)C)=[N+](CCCCS(=O)(=O)[O-])c2ccc3ccccc3c21", "note": "[indocyanine green]", "values": [{"measurement": "fluorescence quantum yield (reference standard)", "setting": "[3]", "result": 13, "unit": "%"}]}
